In patent publication US20210255193A1, “LYSINE REACTIVE PROBES AND USES THEREOF” (The Scripps Research Institute, priority 2017, published 2021):

Tests used:
Assay in all cases: competitive isoTOP-ABPP
Assay type in all cases: binding
[1] = biological target: T1, TPD52L2 Tumor protein D54 (Homo sapiens, UniProt O43399); set-up: key to isoTOP-ABPP reactivity ratio at lysine O43399_K90: R = MS1 peak area ratio, DMSO (heavy) / compound-treated (light)
T1 construct: isoTOP-ABPP experiments performed in cell lysates (in vitro); endogenous in cells; host or cells: MDA-MB-231 soluble lysate
T1 sequence (O43399 whole entry): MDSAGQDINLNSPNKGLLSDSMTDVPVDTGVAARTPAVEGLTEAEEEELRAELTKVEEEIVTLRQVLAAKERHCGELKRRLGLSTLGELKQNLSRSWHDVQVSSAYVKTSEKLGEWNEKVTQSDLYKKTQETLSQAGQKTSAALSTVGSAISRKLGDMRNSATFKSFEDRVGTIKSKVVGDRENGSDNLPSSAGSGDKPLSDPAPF
Protocol: (§1) In vitro covalent fragment treatment for isoTOP-ABPP. All compounds were made up as solutions in DMSO (100×) and were used at a final concentration of 50 μM for activated esters and 100 μM for guanidinylating agents. For each profiling sample, 0.5 ml of lysate was treated with 5 μl of the 100× compound stock solution or 5 μl of DMSO. Samples were treated with activated esters for
(§2) STP-alkyne labeling and click chemistry. For concentration-dependent reactivity measurements by isoTOP-ABPP, 0.5 ml proteome aliquots were treated at ambient temperature with 1 mM STP-alkyne 1 (5 μl of 100 mM stock in DMSO) and 0.1 mM STP alkyne 1 (5 μl of 10 mM stock in DMSO), respectively. For competitive isoTOP-ABPP, after in vitro fragment treatment (detailed above), the samples were labeled for 1 h at ambient temperature with 0.1 mM STP-alkyne 1 (5 μl of 10 mM stock in DMSO). Samples were conjugated by copper-mediated azide-alkyne cycloaddition (CuAAC) to either the light (1 mM STP-alkyne or fragment treated) or heavy (0.1 mM STP-alkyne or DMSO treated) TEV tags (10 μl of 5 mM stocks in DMSO, final concentration=100 μM) using tris(2-carboxyethyl)phosphine hydrochloride
(§3) R value calculation and processing. The ratios of light and heavy MS1 peaks for each unique peptide were quantified with a CIMAGE software using default parameters (3 MS1 acquisitions per peak and signal to noise threshold set to 2.5). For reactivity measurements by isoTOP-ABPP, the R value was calculated from the ratio of MS1 peak areas, comparing the 1 mM STP alkyne sample (light TEV tag) with the 0.1 mM STP alkyne sample (heavy TEV tag). For competitive isoTOP-ABPP, the R value was calculated from the ratio of MS1 peak areas, comparing the DMSO treated sample (heavy TEV tag) with the compound treated sample (light TEV tag). […] Ratios for unique peptide entries are calculated for each experiment; overlapping peptides with the same modified lysine (for example, different charge states, MudPIT chromatographic steps or tryptic termini) are grouped together and the median ratio is reported as the final ratio (R). The peptide ratios reported by CIMAGE were further filtered to ensure the removal or correction of low-quality ratios in each individual data set. The quality filters applied were the following: removal of half tryptic peptides; for ratios with high standard deviations from the median (90% of the median or above) the lowest ratio was taken instead of the median; removal of peptides with R=20 and only a single MS2 event triggered during the elution of the parent ion; manual annotation of all the peptides with ratios of 20, removing any peptides with low quality elution profiles that remained after the previous curation steps (only done for competitive isoTOP-ABPP).
(§4) Cross-data processing for fragment screening. For compound treated samples, biological replicates of the same condition were averaged, if the standard deviation was below 60% of the mean; otherwise, for lysines with at least one R value <4 for a particular compound, the lowest value of the ratio set was taken. For lysines, where all R values for a particular compound were ≥4, the average was reported. For peptides containing several possible modified lysines, the lysine with the highest number of quantification events was used for analysis and the remaining, redundant peptides were reported as alternative modification sites. Peptides included in the aggregate dataset (those used for further bioinformatics and statistical analyses) were required to have been quantified in 2 experiments for competitive isoTOP-ABPP. Lysines were categorized as liganded, if they had at least one ratio R≥4 (hit fragments). For liganded lysines with R=20 for all liganding events, lysines were required to have been quantified with R=20 in two separate experiments and were further required to have been quantified with R<20 in one additional experiment.

HK1 Hexokinase-1 = biological target: T2, HK1 Hexokinase-1 (Homo sapiens, UniProt P19367); set-up: key to isoTOP-ABPP reactivity ratio at lysine P19367_K510: R = MS1 peak area ratio, DMSO (heavy) / compound-treated (light)
T2 construct: isoTOP-ABPP experiments performed in cell lysates (in vitro); endogenous in cells; host or cells: soluble proteome of human cancer cell lines (MDA-MB-231; Ramos and Jurkat also prepared)
T2 sequence (P19367 1-917): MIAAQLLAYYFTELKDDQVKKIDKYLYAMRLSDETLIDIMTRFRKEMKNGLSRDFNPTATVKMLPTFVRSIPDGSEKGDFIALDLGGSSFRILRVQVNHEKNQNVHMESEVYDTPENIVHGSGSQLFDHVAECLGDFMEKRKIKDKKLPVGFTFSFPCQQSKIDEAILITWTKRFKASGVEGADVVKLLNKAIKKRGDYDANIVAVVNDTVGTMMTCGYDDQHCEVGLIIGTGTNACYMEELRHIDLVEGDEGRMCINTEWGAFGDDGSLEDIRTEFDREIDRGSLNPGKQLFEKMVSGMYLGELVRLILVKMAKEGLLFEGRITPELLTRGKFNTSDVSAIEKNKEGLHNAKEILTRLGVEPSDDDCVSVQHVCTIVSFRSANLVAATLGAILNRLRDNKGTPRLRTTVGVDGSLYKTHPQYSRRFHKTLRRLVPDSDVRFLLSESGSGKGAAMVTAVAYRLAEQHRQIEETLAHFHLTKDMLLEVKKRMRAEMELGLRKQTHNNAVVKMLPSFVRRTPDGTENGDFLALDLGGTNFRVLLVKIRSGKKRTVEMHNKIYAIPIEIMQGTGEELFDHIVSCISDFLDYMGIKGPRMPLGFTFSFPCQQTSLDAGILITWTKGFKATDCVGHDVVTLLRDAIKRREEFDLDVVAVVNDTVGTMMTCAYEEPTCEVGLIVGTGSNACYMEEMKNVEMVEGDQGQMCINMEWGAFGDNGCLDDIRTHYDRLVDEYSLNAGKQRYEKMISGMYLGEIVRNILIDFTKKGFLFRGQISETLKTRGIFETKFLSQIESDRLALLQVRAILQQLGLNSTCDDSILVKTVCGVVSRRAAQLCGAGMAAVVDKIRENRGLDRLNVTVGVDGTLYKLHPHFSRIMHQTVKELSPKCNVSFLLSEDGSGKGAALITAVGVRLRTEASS
Protocol: as §1, §2, §3, §4

[2] = biological target: T3, TPMT Thiopurine S-methyltransferase (Homo sapiens, UniProt P51580); set-up: key to isoTOP-ABPP reactivity ratio at lysine P51580_K32: R = MS1 peak area ratio, DMSO (heavy) / compound-treated (light); settings: for isoTOP-ABPP ratio, lysine P51580_K32: 50 uM_231_sol_in vitro
T3 construct: isoTOP-ABPP experiments performed in cell lysates (in vitro); endogenous in cells; host or cells: soluble proteome of human cancer cell lines (MDA-MB-231; Ramos and Jurkat also prepared)
T3 sequence (P51580 1-245): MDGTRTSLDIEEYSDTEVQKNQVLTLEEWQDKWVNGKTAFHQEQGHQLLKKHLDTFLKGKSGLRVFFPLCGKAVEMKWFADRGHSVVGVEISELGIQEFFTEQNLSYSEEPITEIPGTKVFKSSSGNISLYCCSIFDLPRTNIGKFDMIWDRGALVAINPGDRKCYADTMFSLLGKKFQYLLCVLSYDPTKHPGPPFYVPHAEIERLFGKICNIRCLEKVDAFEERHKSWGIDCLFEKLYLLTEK
Protocol: as §1, §2, §3, §4

SMILES: O=C(ON1C(=O)CCC1=O)c1cc(C(F)(F)F)cc(C(F)(F)F)c1 [fragment 46, 3,5-Bis(trifluoromethyl)benzoic acid NHS ester]
- isoTOP-ABPP ratio, lysine O43399_K90 ([1]; 50 uM_231_sol_in vitro): 1.4
- isoTOP-ABPP ratio, lysine P19367_K510 (HK1 Hexokinase-1; 50 uM_231_sol_in vitro): 1.0
- isoTOP-ABPP ratio, lysine P51580_K32 [2]: 20.0

SMILES: NC(=O)c1cc(C(F)(F)F)cc(C(F)(F)F)c1 [fragment 51, reference compound]
- isoTOP-ABPP ratio, lysine O43399_K90 ([1]; 50 uM_231_sol_in vitro): 1.0
- isoTOP-ABPP ratio, lysine P19367_K510 (HK1 Hexokinase-1; 50 uM_231_sol_in vitro): 1.0
- isoTOP-ABPP ratio, lysine P51580_K32 [2]: 0.8

SMILES: O=C(CN1C(=O)c2ccccc2C1=O)Oc1c(F)c(F)c(F)c(F)c1F [fragment 27, Pentafluorophenyl 2-(1,3-dioxoisoindolin-2-yl)acetate]
- isoTOP-ABPP reactivity ratio at lysine O43399_K90 ([1]; 50 uM, 231 sol, in vitro): 1.4
- isoTOP-ABPP reactivity ratio at lysine P19367_K510 (HK1 Hexokinase-1; 50 uM, 231 sol, in vitro): 1.3
- isoTOP-ABPP reactivity ratio at lysine P51580_K32 ([2]; 50 uM, 231 sol, in vitro): 1.3

SMILES: O=C(CCc1cn(-c2ccccc2)nc1-c1ccccc1)Oc1c(F)c(F)c(F)c(F)c1F [fragment 19, Pentafluorophenyl 3-(1,3-diphenyl-1H-pyrazol-4-yl)propanoate]
- R value (DMSO/fragment) for probe 1 labeling ([1]; O43399_K90, 50 uM, 231 sol, in vitro): 2.6
- R value (DMSO/fragment) for probe 1 labeling (HK1 Hexokinase-1; P19367_K510, 50 uM, 231 sol, in vitro): 1.2
- R value (DMSO/fragment) for probe 1 labeling ([2]; P51580_K32, 50 uM, 231 sol, in vitro): 1.3

SMILES: COc1cc(CCC(=O)Oc2ccc([N+](=O)[O-])cc2[N+](=O)[O-])cc(OC)c1OC [fragment 33, 2,4-Dinitrophenyl 3-(3,4,5-trimethoxyphenyl)propanoate]
- isoTOP-ABPP reactivity ratio at lysine O43399_K90 ([1]; 50 uM, 231 sol, in vitro): 1.3
- isoTOP-ABPP reactivity ratio at lysine P19367_K510 (HK1 Hexokinase-1; 50 uM, 231 sol, in vitro): 20.0
- isoTOP-ABPP reactivity ratio at lysine P51580_K32 ([2]; 50 uM, 231 sol, in vitro): 3.7

SMILES: COC(=O)NC(=NC(=O)OCC1c2ccccc2-c2ccccc21)n1cccn1 [fragment 49, N-Methoxycarbonyl-N′-9-fluorenylmethoxycarbonyl-pyrazole-1-carboxamidine]
- isoTOP-ABPP ratio, lysine O43399_K90 ([1]; 100 uM_231_sol_in vitro): 2.9
- isoTOP-ABPP ratio, lysine P19367_K510 (HK1 Hexokinase-1; 100 uM_231_sol_in vitro): 1.1

SMILES: O=C(Oc1ccc([N+](=O)[O-])cc1[N+](=O)[O-])c1ccc2ccccc2n1 [fragment 35, 2,4-Dinitrophenyl quinoline-2-carboxylate]
- isoTOP-ABPP ratio (R) at liganded lysine O43399_K90 ([1]; 50 uM, in vitro, sol, 231): 1.3
- isoTOP-ABPP ratio (R) at liganded lysine P19367_K510 (HK1 Hexokinase-1; 50 uM, in vitro, sol, 231): 1.1

SMILES: O=C(Oc1c(F)c(F)c(F)c(F)c1F)C1CCN(C(=O)OCc2ccccc2)CC1 [fragment 24, 1-Benzyl 4-(pentafluorophenyl) piperidine-1,4-dicarboxylate]
- isoTOP-ABPP reactivity ratio at lysine O43399_K90 ([1]; 50 uM, 231 sol, in vitro): 1.9
- isoTOP-ABPP reactivity ratio at lysine P51580_K32 ([2]; 50 uM, 231 sol, in vitro): 1.0
